In ChEMBL document CHEMBL4130416, “Glycine-replaced derivatives of [Pro3,DLeu9]TL, a temporin L analogue: Evaluation of antimicrobial, cytotoxic and hemolytic activities” (Eur J Med Chem, 2017):
Converted amounts (≈) assume the structure as drawn. Where a SMILES comes first, the peptide text is derived from it. [ ]: non-standard residue; d: D form.

Tests used:
[1] = system: Escherichia coli; assay: Antimicrobial activity against Escherichia coli D21 after 18 to 20 hrs by microbroth dilution method; format: functional
[2] = system: Candida albicans; assay: Antimicrobial activity against Candida albicans ATCC 10231 after 18 to 20 hrs by microbroth dilution method; format: functional
[3] = system: Priestia megaterium; assay: Antimicrobial activity against Bacillus megaterium Bm11 after 18 to 20 hrs by microbroth dilution method; format: functional
[4] = system: HaCaT; assay: Cytotoxicity against human HaCaT cells at 6.25 uM after 24 hrs by MTT assay relative to control; format: cell-based
[5] = system: HaCaT; assay: Cytotoxicity against human HaCaT cells at 25 uM after 24 hrs by MTT assay relative to control; format: cell-based
[6] = system: Pichia kudriavzevii; assay: Antimicrobial activity against Candida krusei ATCC 6258 after 18 to 20 hrs by microbroth dilution method; format: functional
[7] = system: Staphylococcus aureus; assay: Antimicrobial activity against Staphylococcus aureus Cowan I after 18 to 20 hrs by microbroth dilution method; format: functional
[8] = system: HaCaT; assay: Cytotoxicity against human HaCaT cells at 12.5 uM after 24 hrs by MTT assay relative to control; format: cell-based
[9] = system: Acinetobacter baumannii; assay: Antimicrobial activity against Acinetobacter baumannii ATCC 19606 after 18 to 20 hrs by microbroth dilution method; format: functional; conditions: ATCC 19606 = CIP 70.34 = JCM 6841
[10] = system: Pseudomonas syringae; assay: Antimicrobial activity against Pseudomonas syringae pv tabaci NCPPB 1918 after 18 to 20 hrs by microbroth dilution method; format: functional, Pseudomonas amygdali pv. tabaci
[11] = system: Staphylococcus epidermidis; assay: Antimicrobial activity against Staphylococcus epidermidis ATCC 12228 after 18 to 20 hrs by microbroth dilution method; format: functional
[12] = system: Pseudomonas aeruginosa; assay: Antimicrobial activity against Pseudomonas aeruginosa ATCC 27853 after 18 to 20 hrs by microbroth dilution method; format: functional
[13] = system: HaCaT; assay: Cytotoxicity against human HaCaT cells at 50 uM after 24 hrs by MTT assay relative to control; format: cell-based
[14] = system: Pseudomonas aeruginosa; assay: Antimicrobial activity against multisensitive Pseudomonas aeruginosa after 18 to 20 hrs by microbroth dilution method; format: functional
[15] = system: Staphylococcus aureus; assay: Antimicrobial activity against macrolid resistant Staphylococcus aureus after 18 to 20 hrs by microbroth dilution method; format: functional
[16] = Metabolic stability in 90% human serum assessed as parent compound remaining at 0.2 mM after 45 mins by RP-UHPLC analysis; format: ADME, cell-free; conditions: read-out: Stability
[17] = system: Candida albicans; assay: Antimicrobial activity against Candida albicans clinical isolate 1 after 18 to 20 hrs by microbroth dilution method; format: functional
[18] = system: Escherichia coli; assay: Antimicrobial activity against multisensitive Escherichia coli clinical isolate 1 after 18 to 20 hrs by microbroth dilution method; format: functional
[19] = system: Staphylococcus aureus; assay: Antimicrobial activity against multisensitive Staphylococcus aureus after 18 to 20 hrs by microbroth dilution method; format: functional
[20] = system: Escherichia coli; assay: Antimicrobial activity against multisensitive Escherichia coli clinical isolate 2 after 18 to 20 hrs by microbroth dilution method; format: functional
[21] = system: HaCaT; assay: Cytotoxicity against human HaCaT cells at 1.56 to 6.25 uM after 24 hrs by MTT assay; format: cell-based
[22] = system: Staphylococcus aureus; assay: Antimicrobial activity against methicillin resistant Staphylococcus aureus clinical isolate 2 after 18 to 20 hrs by microbroth dilution method; format: functional
[23] = system: Candida albicans; assay: Antimicrobial activity against Candida albicans clinical isolate 2 after 18 to 20 hrs by microbroth dilution method; format: functional
[24] = system: Klebsiella pneumoniae; assay: Antimicrobial activity against multisensitive Klebsiella pneumoniae after 18 to 20 hrs by microbroth dilution method; format: functional
[25] = Metabolic stability in 90% human serum assessed as parent compound remaining at […] after 120 mins by RP-UHPLC analysis; format: ADME, cell-free; conditions: read-out: Stability
[26] = Hemolytic activity against human erythrocytes at 6.25 uM after 40 mins relative to control; format: ADME, cell-based, Erythrocyte; conditions: read-out: Activity
[27] = Hemolytic activity against human erythrocytes at 25 uM after 40 mins relative to control; format: ADME, cell-based, Erythrocyte; conditions: read-out: Activity
[28] = system: Staphylococcus aureus; assay: Antimicrobial activity against methicillin resistant Staphylococcus aureus clinical isolate 1 after 18 to 20 hrs by microbroth dilution method; format: functional
[29] = Hemolytic activity against human erythrocytes at 50 uM after 40 mins relative to control; format: ADME, cell-based, Erythrocyte; conditions: read-out: Activity
[30] = Hemolytic activity against human erythrocytes at 3.125 uM after 40 mins relative to control; format: ADME, cell-based, Erythrocyte; conditions: read-out: Activity
[31] = Hemolytic activity against human erythrocytes at 12.5 uM after 40 mins relative to control; format: ADME, cell-based, Erythrocyte; conditions: read-out: Activity
[32] = system: Staphylococcus aureus; assay: Antimicrobial activity against beta-lactamase resistant Staphylococcus aureus after 18 to 20 hrs by microbroth dilution method; format: functional

Structure (SMILES) | MIC [1] | MIC [2] | MIC [3] | Activity [5] | MIC [6] | MIC [7] | Activity [8] | MIC [9] | MIC [10] | MIC [11] | MIC [12] | Activity [13] | also measured
CCCC[C@@H](NC(=O)[C@@H](CC(C)C)NC(=O)[C@H](Cc1ccccc1)NC(=O)[C@H](CCCCN)NC(=O)[C@H](CO)NC(=O)[C@H](Cc1ccccc1)NC(=O)[C@H](Cc1c[nH]c2ccccc12)NC(=O)[C@@H]1CCCN1C(=O)[C@@H](NC(=O)[C@@H](N)Cc1ccccc1)C(C)C)C(=O)N[C@@H](CCCNC(=N)N)C(=O)NC(C(=O)N[C@@H](CC(C)C)C(N)=O)[C@@H](C)CC (single isomer, unassigned) | 25 µM (≈ 41.6 µg/mL) | 3.12 µM (≈ 5.2 µg/mL) | 1.56 µM (≈ 2.6 µg/mL) | 72.81% | 1.56 µM (≈ 2.6 µg/mL) | 3.12 µM (≈ 5.2 µg/mL) | 39.96% | 6.25 µM (≈ 10.4 µg/mL) | 3.12 µM (≈ 5.2 µg/mL) | 3.12 µM (≈ 5.2 µg/mL) | 50 µM (≈ 83.3 µg/mL) | 96.64% | Activity [4]: 15%
CC[C@H](C)[C@H](NC(=O)[C@H](CCCNC(=N)N)NC(=O)CNC(=O)[C@@H](CC(C)C)NC(=O)[C@H](Cc1ccccc1)NC(=O)[C@H](CCCCN)NC(=O)[C@H](CO)NC(=O)[C@H](Cc1ccccc1)NC(=O)[C@H](Cc1c[nH]c2ccccc12)NC(=O)[C@@H]1CCCN1C(=O)[C@@H](NC(=O)[C@@H](N)Cc1ccccc1)C(C)C)C(=O)N[C@@H](CC(C)C)C(N)=O (H-FVPWFSKF[dL]GRIL-NH2) | 12.5 µM (≈ 20.1 µg/mL) | 3.12 µM (≈ 5.03 µg/mL) | 3.12 µM (≈ 5.03 µg/mL) | 57.52% | 3.12 µM (≈ 5.03 µg/mL) | 12.5 µM (≈ 20.1 µg/mL) | 20.63% | 12.5 µM (≈ 20.1 µg/mL) | 12.5 µM (≈ 20.1 µg/mL) | 6.25 µM (≈ 10.1 µg/mL) | 50 µM (≈ 80.4 µg/mL) | 91.58% | MIC [14]: > 50 µM; MIC [15]: 12.5 µM (≈ 20.1 µg/mL); remaining at 0.75 h, 200 µM [16]: 45%; MIC [17]: 25 µM (≈ 40.2 µg/mL); MIC [18]: 50 µM (≈ 80.4 µg/mL); MIC [19]: 12.5 µM (≈ 20.1 µg/mL); MIC [20]: 50 µM (≈ 80.4 µg/mL); Activity [21]: Non-Toxic; MIC [22]: 12.5 µM (≈ 20.1 µg/mL); MIC [23]: 25 µM (≈ 40.2 µg/mL); MIC [24]: > 50 µM; remaining at 2 h [25]: 20%; hemolysis at 40 min, 6.25 µM [26]: 3%; hemolysis at 40 min, 25 µM [27]: 7%; MIC [28]: 12.5 µM (≈ 20.1 µg/mL); hemolysis at 40 min, 50 µM [29]: 21%; hemolysis at 40 min, 3.125 µM [30]: 1%; hemolysis at 40 min, 12.5 µM [31]: 6%; MIC [32]: 12.5 µM (≈ 20.1 µg/mL)
